# Experimental data as given in ChEMBL document CHEMBL1201862, “PubChem BioAssay data set” (2004).
#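 Following 48 hours of exposure in 96-well plates, responses at five concentrations were used to interpolate endpoints linearly. At the GI50, growth is halved.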 Active and inactive are the calls of the source. Cut-off read from the data, not from the text of the source: active = GI50 up to about 1.1 µM and inactive = higher.
# Columns and labels:
# Assay in all cases: NCI anticancer screen, dose series, 48 h
# A498 = test system: A498
# COLO 205 = test system: COLO 205
# DU-145 = test system: DU-145
# HOP-62 = test system: HOP-62
# HOP-92 = test system: HOP-92
# K562 = test system: K562
# KM12 = test system: KM12
# M14 = test system: M14
# MDA-MB-435 = test system: MDA-MB-435
# Malme-3M = test system: Malme-3M
# OVCAR-4 = test system: OVCAR-4
# OVCAR-5 = test system: OVCAR-5
# OVCAR-8 = test system: OVCAR-8
# RXF 393 = test system: RXF 393
# SF-295 = test system: SF-295
# SK-MEL-5 = test system: SK-MEL-5
# SK-OV-3 = test system: SK-OV-3
# SNB-19 = test system: SNB-19
# T47D = test system: T47D
Compound,GI50 (A498),GI50 (COLO 205),GI50 (DU-145),GI50 (HOP-62),GI50 (HOP-92),GI50 (K562),GI50 (KM12),GI50 (M14),GI50 (MDA-MB-435),GI50 (Malme-3M),GI50 (OVCAR-4),GI50 (OVCAR-5),GI50 (OVCAR-8),GI50 (RXF 393),GI50 (SF-295),GI50 (SK-MEL-5),GI50 (SK-OV-3),GI50 (SNB-19),GI50 (T47D)
CCCn1cnc2c(SCC(=O)O)nc(N)nc21,> 100 µM (inactive),> 100 µM (inactive),> 100 µM (inactive),> 100 µM (inactive),> 100 µM (inactive),> 100 µM (inactive),> 100 µM (inactive),> 100 µM (inactive),> 100 µM (inactive),> 100 µM (inactive),> 100 µM (inactive),> 100 µM (inactive),> 100 µM (inactive),> 100 µM (inactive),> 100 µM (inactive),> 100 µM (inactive),> 100 µM (inactive),> 100 µM (inactive),> 100 µM (inactive)
CCOC(=O)CCc1c(C(=O)OCC)[nH]c(/C=C2/NC(=O)C(C)=C2CC)c1C,17.1 µM (inactive),14 µM (inactive),16.9 µM (inactive),15 µM (inactive),14.1 µM (inactive),0.0494 µM (active),10.9 µM (inactive),7.28 µM (inactive),6.73 µM (inactive),13 µM (inactive),2.9 µM (inactive),29.5 µM (inactive),31.9 µM (inactive),11.1 µM (inactive),11.6 µM (inactive),2.97 µM (inactive),34.7 µM (inactive),13.1 µM (inactive),2.11 µM (inactive)
CC(C)[Si]1(C(C)C)OCC2OC(n3c(C(=O)c4ccccc4)cc(=O)[nH]c3=O)CC2O[Si](C(C)C)(C(C)C)O1 (stereo unspecified),11.4 µM (inactive),3.72 µM (inactive),11.6 µM (inactive),7.03 µM (inactive),2.33 µM (inactive),3.05 µM (inactive),2.31 µM (inactive),3.66 µM (inactive),3.1 µM (inactive),3.75 µM (inactive),2.93 µM (inactive),3.4 µM (inactive),1.99 µM (inactive),2.54 µM (inactive),3.78 µM (inactive),4.37 µM (inactive),11.9 µM (inactive),7.71 µM (inactive),4.36 µM (inactive)
N#CC12C(=O)N3C(=NC(c4ccccc4)NC3c3ccccc3)C1(C#N)C(c1ccccc1)NC1=C2CCC1 (stereo unspecified),> 100 µM (inactive),> 100 µM (inactive),> 100 µM (inactive),> 100 µM (inactive),> 100 µM (inactive),63.5 µM (inactive),> 100 µM (inactive),> 100 µM (inactive),> 100 µM (inactive),> 100 µM (inactive),> 100 µM (inactive),> 100 µM (inactive),> 100 µM (inactive),> 100 µM (inactive),> 100 µM (inactive),> 100 µM (inactive),> 100 µM (inactive),> 100 µM (inactive),> 100 µM (inactive)
CN1CCN(c2nc3c(c(=O)n(C)c(=O)n3C)n2C)CC1,> 100 µM (inactive),> 100 µM (inactive),> 100 µM (inactive),> 100 µM (inactive),> 100 µM (inactive),> 100 µM (inactive),> 100 µM (inactive),> 100 µM (inactive),> 100 µM (inactive),> 100 µM (inactive),> 100 µM (inactive),> 100 µM (inactive),> 100 µM (inactive),> 100 µM (inactive),> 100 µM (inactive),> 100 µM (inactive),> 100 µM (inactive),> 100 µM (inactive),> 100 µM (inactive)
C=C1C(=O)OC2C1CCC(=C)C1CC(O)C(=C)C12 (stereo unspecified),20 µM (inactive),2.55 µM (inactive),15 µM (inactive),21.2 µM (inactive),3.21 µM (inactive),5.09 µM (inactive),13.7 µM (inactive),17.5 µM (inactive),19.5 µM (inactive),14.3 µM (inactive),16.2 µM (inactive),11.5 µM (inactive),24.9 µM (inactive),13.1 µM (inactive),38.5 µM (inactive),14.3 µM (inactive),33.8 µM (inactive),23.8 µM (inactive),20.7 µM (inactive)
Cc1nc2ccccc2c(-n2cccn2)c1CCn1cccn1,46.3 µM (inactive),96.6 µM (inactive),> 100 µM (inactive),> 100 µM (inactive),52.8 µM (inactive),55 µM (inactive),> 100 µM (inactive),> 100 µM (inactive),> 100 µM (inactive),> 100 µM (inactive),23.8 µM (inactive),> 100 µM (inactive),> 100 µM (inactive),> 100 µM (inactive),> 100 µM (inactive),46.6 µM (inactive),> 100 µM (inactive),> 100 µM (inactive),> 100 µM (inactive)
Cc1n[nH]c(=O)n1/N=C\CC/C=N\n1c(C)n[nH]c1=O,> 100 µM (inactive),> 100 µM (inactive),> 100 µM (inactive),> 100 µM (inactive),> 100 µM (inactive),> 100 µM (inactive),> 100 µM (inactive),> 100 µM (inactive),> 100 µM (inactive),> 100 µM (inactive),> 100 µM (inactive),> 100 µM (inactive),> 100 µM (inactive),> 100 µM (inactive),> 100 µM (inactive),> 100 µM (inactive),> 100 µM (inactive),> 100 µM (inactive),> 100 µM (inactive)
C[As](C)SCC(NC(=O)CCC(N)C(=O)O)C(=O)NCC(=O)O.c1ccncc1 (stereo unspecified),0.437 µM (active),0.105 µM (active),0.0867 µM (active),0.885 µM (active),0.0843 µM (active),0.0266 µM (active),0.361 µM (active),0.22 µM (active),0.0843 µM (active),0.0389 µM (active),0.592 µM (active),0.436 µM (active),0.231 µM (active),0.0471 µM (active),3.23 µM (inactive),0.0966 µM (active),7.31 µM (inactive),3.68 µM (inactive),0.0938 µM (active)
O=C(CCCCCCCCC(=O)N1C(=O)CC(=O)N(c2ccc(Cl)cc2)C1=S)N1C(=O)CC(=O)N(c2ccc(Cl)cc2)C1=S,> 100 µM (inactive),32.9 µM (inactive),> 100 µM (inactive),80.9 µM (inactive),> 100 µM (inactive),17.5 µM (inactive),27.4 µM (inactive),38.5 µM (inactive),58.1 µM (inactive),> 100 µM (inactive),41.6 µM (inactive),> 100 µM (inactive),63.5 µM (inactive),> 100 µM (inactive),33 µM (inactive),29.9 µM (inactive),73.3 µM (inactive),74.1 µM (inactive),33.3 µM (inactive)
O=C(O)c1cc(/N=N/c2ccc([N+](=O)[O-])cc2)ccc1O,19.5 µM (inactive),30.8 µM (inactive),38.3 µM (inactive),40.6 µM (inactive),18 µM (inactive),29.6 µM (inactive),33.2 µM (inactive),39.4 µM (inactive),34.9 µM (inactive),42.6 µM (inactive),23.9 µM (inactive),30.3 µM (inactive),33.4 µM (inactive),42.3 µM (inactive),32.3 µM (inactive),34.6 µM (inactive),81.7 µM (inactive),30.9 µM (inactive),42.6 µM (inactive)
C[n+]1c(-c2ccc(/C=N/NC(=O)c3ccc(C(=O)N/N=C/c4ccc(-c5cn6ccccc6[n+]5C)cc4)cc3)cc2)cn2ccccc21,29.2 µM (inactive),> 100 µM (inactive),> 100 µM (inactive),> 100 µM (inactive),> 100 µM (inactive),> 100 µM (inactive),> 100 µM (inactive),98.6 µM (inactive),> 75.7 µM (inactive),> 54.6 µM (inactive),> 100 µM (inactive),> 100 µM (inactive),> 100 µM (inactive),> 61.9 µM (inactive),> 100 µM (inactive),> 67.9 µM (inactive),> 100 µM (inactive),> 100 µM (inactive),> 100 µM (inactive)
O=c1c(Cc2ccccc2Cc2c(O)oc3ccccc3c2=O)c(O)oc2ccccc12,> 100 µM (inactive),> 100 µM (inactive),> 100 µM (inactive),> 100 µM (inactive),> 100 µM (inactive),> 100 µM (inactive),> 100 µM (inactive),> 100 µM (inactive),> 100 µM (inactive),> 100 µM (inactive),> 100 µM (inactive),> 100 µM (inactive),> 100 µM (inactive),> 100 µM (inactive),> 100 µM (inactive),> 100 µM (inactive),> 100 µM (inactive),> 100 µM (inactive),> 100 µM (inactive)
C[C@]12CC[C@H](O)C[C@H]1CC[C@@H]1[C@@H]2CC[C@]2(C)[C@@H](C3=CC(=O)OC3)CC[C@]12O [DIGITOXIGENIN],0.125 µM (active),0.44 µM (active),0.04 µM (active),0.04 µM (active),0.188 µM (active),0.0536 µM (active),0.713 µM (active),0.226 µM (active),0.217 µM (active),0.0615 µM (active),0.0662 µM (active),0.59 µM (active),0.147 µM (active),0.0144 µM (active),0.0473 µM (active),0.0447 µM (active),0.111 µM (active),0.851 µM (active),0.292 µM (active)
